# Reference: US20220402914A1, “Tryptoline-Based Benzothiazoles and their use as Antibiotics and Antibiotic Resistance-Modifying Agents” (The Regents of the University of Colorado, a body corporate, priority 2019, published 2022)
# Structures can show the parent of a compound that is named as a salt. Where two headings read alike, the source gives them in different places.
# What was measured:
# MRSA ATCC BAA-44 [1] = assay: Minimal inhibitory concentration (MIC), standard broth microdilution; type: cell-based, Staphylococcus aureus; conditions: for MIC: MRSA BAA-44 strain
# Procedure: (§1) RMA activity of the analogues was tested by assessing their abilities to sensitize MRSA to the antibiotic cefazolin (a first-generation cephalosporin). The well characterized strain MRSA ATCC BAA-44 was tested as previously described. […] The minimal inhibitory concentration (MIC), or the lowest concentration at which S. aureus is considered susceptible to an antibacterial, was determined by the standard broth microdilution method detailed in the CLSI handbook. RMA activity was compared by the ratio of MIC/MRC. The half growth inhibitory concentration (GI50) of each analogue against HeLa cells was determined as previously described. […] The luminescence of each sample was recorded in an Envision Multilabel Plate Reader (Perkin Elmer). Results of MICs and MRCs were confirmed by testing in triplicate. The GI50 assay was performed in duplicate.
# MRSA ATCC BAA-44 [2] = assay: Minimum re-sensitizing concentration (MRC) in the presence of cefazolin; type: cell-based, Staphylococcus aureus; conditions: MRSA BAA-44, cefazolin
# Procedure: as §1
# HeLa cells = assay: GI50 against HeLa cells, Cell Titer Glo viability assay; type: cell-based, human; conditions: for GI50: 24 h
# Procedure: as §1
# multiple MRSA strains = assay: RMA activity in multiple MRSA strains with cephalosporins; type: cell-based, S. aureus
# Procedure: as §1
# We next explored the scope of RMA activity of 4ad in different MRSA strains, including MRSA BAA-1683, MRSA BAA-1764, MRSA NR-46411, NRS-384 and NRS-100. These strains were selected because of their diverse geographical origins, genetic background, and resistance profile. We also tested RMA activity in combination with another commercial antibiotic, cefuroxime, which is a second-generation cephalosporin. MRCs in the presence of cefuroxime were determined using the same method as those for cefazolin.
# [3] = GI50 against HeLa cells, Cell Titer Glo viability assay; type: cell-based, human; conditions: human, HeLa cells, 24 h
# Procedure: as §1
# MRSA-252 = assay: MIC, scope of antibacterial activity; type: cell-based, S. aureus; conditions: Staphylococcus aureus
# Procedure: as §1
# (§2) Furthermore, we explored the scope of the antibacterial activity of 12g in a panel of MRSA and MSSA strains including BAA-44 (MIC=1 μg/mL), MRSA-252 (MIC=2 μg/mL), B. subtilis NR-607 (MIC=2 μg/mL), E. faecium HM-460 (MIC=4 μg/mL), E. faecium 28977 (MIC=2 μg/mL) and MSSA (MIC=0.5 μg/mL).
# MSSA = assay: MIC, scope of antibacterial activity; type: cell-based, S. aureus; conditions: Staphylococcus aureus
# Procedure: as §1, §2
# B. subtilis NR-607 = assay: MIC, scope of antibacterial activity; type: cell-based; conditions: Bacillus subtilis, NR607
# Procedure: as §1, §2
# E. faecium 28977 = assay: MIC, scope of antibacterial activity; type: cell-based; conditions: Enterococcus faecium
# Procedure: as §1, §2
# E. faecium HM-460 = assay: MIC, scope of antibacterial activity; type: cell-based; conditions: Enterococcus faecium, HM460
# Procedure: as §1, §2
# [4] = Staphylococcus aureus, read-out: MIC
MIC (MRSA ATCC BAA-44 [1]; [4]) [µg/mL],SMILES,RMA activity (in words) (MRSA ATCC BAA-44 [2]),GI50 (HeLa cells) [µg/mL],further results
> 64,"COC(=O)C1Cc2c([nH]c3ccc(Cl)cc23)CN1c1nc2ccc(Cl)cc2s1 (stereo not shown) [Compound 4m, Methyl 6-chloro-2-(6-chloro-1,3-benzothiazol-2-yl)-2,3,4,9-tetrahydro-1H-pyrido[3,4-b]indole-3-carboxylate]",abolished,–,–
> 32,"FC(F)(F)c1cccc2sc(N3CCc4c([nH]c5ccc(Cl)cc45)C3)nc12 [Compound 4af, 6-Chloro-2-[4-(trifluoromethyl)-1,3-benzothiazol-2-yl]-2,3,4,9-tetrahydro-1H-pyrido[3,4-b]indole]",good RMA activities,8,worse GI50 relative to 4w (HeLa cells): 3 fold
4,"Clc1ccc2[nH]c3c(c2c1)CCN(c1nc2cccc(Cl)c2s1)C3 [Compound 4u, 6-Chloro-2-(7-chloro-1,3-benzothiazol-2-yl)-2,3,4,9-tetrahydro-1H-pyrido[3,4-b]indole]",reduced RMA activity,6.7,MIC (in words) (MRSA ATCC BAA-44 [1]; MRSA BAA-44): increased MIC
> 64,"Clc1ccc2[nH]c3c(c2c1)CCN(c1nc2ccc(Br)cc2s1)C3 [Compound 4p, 2-(6-Bromo-1,3-benzothiazol-2-yl)-6-chloro-2,3,4,9-tetrahydro-1H-pyrido[3,4-b]indole]",retained the RMA activity,5.1,–
> 32,"CNc1cc(C(F)(F)F)c2nc(N3CCc4c([nH]c5ccc(Cl)cc45)C3)sc2c1 [Compound 4ai, 2-(6-Chloro-1,3,4,9-tetrahydro-2H-pyrido[3,4-b]indol-2-yl)-N-methyl-4-(trifluoromethyl)-1,3-benzothiazol-6-amine]",good RMA activities,15.4,–
> 64,"Clc1ccc2nc(N3CCc4c([nH]c5ccc(Cl)cc45)C3)sc2c1 [Compound 4a, 6-Chloro-2-(6-chloro-1,3-benzothiazol-2-yl)-2,3,4,9-tetrahydro-1H-pyrido[3,4-b]indole]",–,13.2,RMA activity (ratio of MIC/MRC) (MRSA ATCC BAA-44 [2]): 32 fold
> 32,"COC(=O)C1CN(c2nc3ccc(Cl)cc3s2)Cc2[nH]c3ccc(Cl)cc3c21 (racemic) [Compound 4n, Methyl 6-chloro-2-(6-chlorobenzo[d]thiazol-2-yl)-2,3,4,9-tetrahydro-1H-pyrido[3,4-b]indole-4-carboxylate]",without compromising the RMA activity,6.6,RMA activity (ratio of MIC/MRC) (MRSA ATCC BAA-44 [2]): 32 fold
> 64,"Clc1ccc2[nH]c3c(c2c1)CCN(c1nc2c(Cl)cccc2s1)C3 [Compound 4w, 6-Chloro-2-(4-chloro-1,3-benzothiazol-2-yl)-2,3,4,9-tetrahydro-1H-pyrido[3,4-b]indole]",maintained similar RMA activity,27.7,–
–,"FC(F)(F)Oc1ccc2nc(N3CCc4c([nH]c5ccc(Cl)cc45)C3)sc2c1 [Compound 4t, 6-Chloro-2-[6-(trifluoromethoxy)-1,3-benzothiazol-2-yl]-2,3,4,9-tetrahydro-1H-pyrido[3,4-b]indole]",lost the RMA activity completely,7.3,MIC (MRSA ATCC BAA-44 [1]): 1 µg/mL
–,"Nc1cc(Cl)c2nc(N3CCc4c([nH]c5ccc(Cl)cc45)C3)sc2c1 [Compound 4ad, 4-Chloro-2-(6-chloro-1,3,4,9-tetrahydro-2H-pyrido[3,4-b]indol-2-yl)-1,3-benzothiazol-6-amine]",good RMA activities,> 100,"MIC (MRSA ATCC BAA-44 [1]): >32 µg/mL; potentiation of antibiotics (in words) (multiple MRSA strains; five MRSA strains, cefazolin and cefuroxime): potentiates both antibiotic cefazolin and cefuroxime; concentration that re-sensitizes multiple MRSA strains to cephalosporins (multiple MRSA strains; multiple MRSA strains, cephalosporins): 2 µg/mL"
–,"CCOC(=O)C1c2[nH]c3ccc(Cl)cc3c2CCN1c1nc2ccc(Cl)cc2s1 (stereo not shown) [Compound 4l, Ethyl 6-chloro-2-(6-chloro-1,3-benzothiazol-2-yl)-2,3,4,9-tetrahydro-1H-pyrido[3,4-b]indole-1-carboxylate]",abolished,–,–
32,"O=C(O)C1CN(c2nc3ccc(Cl)cc3s2)Cc2[nH]c3ccc(Cl)cc3c21 (racemic) [Compound 8, 6-Chloro-2-(6-chlorobenzo[d]thiazol-2-yl)-2,3,4,9-tetrahydro-1H-pyrido[3,4-b]indole-4-carboxylic acid]",significantly decreased or abolished the RMA activity,65,–
–,"N=C(N)NCC1CN(c2nc3ccc(Cl)cc3s2)Cc2[nH]c3ccc(Cl)cc3c21 (racemic) [Compound 12g, 1-((6-chloro-2-(6-chlorobenzo[d]thiazol-2-yl)-2,3,4,9-tetrahydro-1H-pyrido[3,4-b]indol-4-yl)methyl)guanidine hydrochloride]",–,–,MIC (MRSA ATCC BAA-44 [1]; hydrochloride): 1 µg/mL; MIC (MRSA ATCC BAA-44 [1]; Staphylococcus aureus): 2 µg/mL; GI50 at 24 h [3]: 14.1 µg/mL; MIC (MRSA-252): 2 µg/mL; MIC (MSSA): 0.5 µg/mL; MIC (B. subtilis NR-607): 2 µg/mL; MIC (E. faecium 28977): 2 µg/mL; MIC (E. faecium HM-460): 4 µg/mL
> 64,"FC(F)(F)c1ccc2nc(N3CCc4c([nH]c5ccc(Cl)cc45)C3)sc2c1 [Compound 4s, 6-Chloro-2-[6-(trifluoromethyl)-1,3-benzothiazol-2-yl]-2,3,4,9-tetrahydro-1H-pyrido[3,4-b]indole]",–,4.6,increase of RMA activity relative to 4a (MRSA ATCC BAA-44 [2]): 4 fold
